According to ChEMBL document CHEMBL1158270, “Triangulynes A-H and trangulynic acid, new cytotxic polyacetylenes from the marine sponge Pellina triangulata” (1996):

Assays:
Assay type in all cases: functional
[1] = test system: K562; experiment: Cytotoxicity against human K562 cells
[2] = test system: HOP-92; experiment: Cytotoxicity against human HOP92 cells
[3] = test system: NCI-H322M; experiment: Cytotoxicity against human NCI-H322M cells
[4] = test system: HCC 2998; experiment: Cytotoxicity against human HCC2998 cells
[5] = test system: KM12; experiment: Cytotoxicity against human KM12 cells
[6] = test system: SF-295; experiment: Cytotoxicity against human SF295 cells
[7] = test system: LOX IMVI; experiment: Cytotoxicity against human LOXIMVI cells
[8] = test system: SK-MEL-2; experiment: Cytotoxicity against human SK-MEL-2 cells
[9] = test system: OVCAR-8; experiment: Cytotoxicity against human OVCAR8 cells
[10] = test system: TK-10; experiment: Cytotoxicity against human TK10 cells
[11] = Cytotoxicity against human MCF7/ADR cells; conditions: NCI/ADR-RES
[12] = Cytotoxicity against human Hs 578T cells
[13] = test system: MDA-MB-435; experiment: Cytotoxicity against human MDA-MB-435 cells
[14] = test system: BT-549; experiment: Cytotoxicity against human BT549 cells
[15] = test system: 786-0; experiment: Cytotoxicity against human 786-0 cells
[16] = read-out: pLC50 (the source's name) (converted)

C#C[C@H](O)/C=C/CCCCCCCCCC/C=C\CCCCCCC[C@H](O)C#CC#CC#CCO [TRIANGULYNE A]
GI50 [1]: 372 nM
LC50 [1]: 37200 nM
TGI ([1]; read-out: pTGI (converted)): 2290 nM
GI50 [2]: 324 nM
CC50 [2, 16]: 15100 nM
TGI ([2]; read-out: pTGI (converted)): 1200 nM
GI50 [3]: 3310 nM
CC50 [3, 16]: 57500 nM
TGI ([3]; read-out: pTGI (converted)): 12000 nM
GI50 [4]: 257 nM
LC50 [4]: 2190 nM
TGI ([4]; read-out: pTGI (converted)): 692 nM
GI50 [5]: 170 nM
LC50 [5]: 1100 nM
TGI ([5]; read-out: pTGI (converted)): 380 nM
GI50 [6]: 2880 nM
CC50 [6, 16]: 51300 nM
TGI ([6]; read-out: pTGI (converted)): 9550 nM
GI50 [7]: 141 nM
LC50 [7]: 7940 nM
TGI ([7]; read-out: pTGI (converted)): 363 nM
GI50 [8]: 251 nM
CC50 [8, 16]: 7760 nM
TGI ([8]; read-out: pTGI (converted)): 891 nM
GI50 [9]: 129 nM
CC50 [9, 16]: 21900 nM
TGI ([9]; read-out: pTGI (converted)): 851 nM
GI50 [10]: 646 nM
CC50 [10, 16]: 11000 nM
TGI ([10]; read-out: pTGI (converted)): 2090 nM
GI50 [11]: 302 nM
CC50 [11, 16]: 32400 nM
TGI ([11]; read-out: pTGI (converted)): 5130 nM
GI50 [12]: 2400 nM
CC50 [12, 16]: 57500 nM
TGI ([12]; read-out: pTGI (converted)): 8320 nM
GI50 [13]: 170 nM
CC50 [13, 16]: 4470 nM
TGI ([13]; read-out: pTGI (converted)): 832 nM
GI50 [14]: 794 nM
CC50 [14, 16]: 11000 nM
TGI ([14]; read-out: pTGI (converted)): 2400 nM
GI50 [15]: 288 nM
CC50 [15, 16]: 3980 nM
TGI ([15]; read-out: pTGI (converted)): 1100 nM
